Reference: US12221419B2, “Abietanes and methods of making and using the same” (Florida State University Research Foundation, Incorporated., priority 2022, dated 2025)

Tests used:
glioblastoma cells = assay: activity in glioblastoma cell culture (3D 'tumor' cell growth, FIG. 6); format: cell-based; settings: 3D 'tumor' cells, comparator alendronate
Text: With entry to fully synthetic abietanes in hand, we explored the activity of taxodione (FL-1) and several synthetic analogs (FL-2 and FL-3) in glioblastoma cell culture (FIG. 6). […] Nevertheless, it is clear that a synthetic entry to bioactive molecules that inhibit glioblastoma cell growth has been established. This is a particularly important application because glioblastoma is an invasive brain cancer with a 5-year mean survival rate of only 5.5%. There are few effective treatments beyond surgery and ionizing radiation. Thus, new therapy modalities are urgently needed.

[1] = target: T1, farnesyl diphosphate synthase (Homo sapiens, UniProt P14324); settings: statement from cited literature (ref. 28); cited from earlier work
T1 sequence (P14324 1-419): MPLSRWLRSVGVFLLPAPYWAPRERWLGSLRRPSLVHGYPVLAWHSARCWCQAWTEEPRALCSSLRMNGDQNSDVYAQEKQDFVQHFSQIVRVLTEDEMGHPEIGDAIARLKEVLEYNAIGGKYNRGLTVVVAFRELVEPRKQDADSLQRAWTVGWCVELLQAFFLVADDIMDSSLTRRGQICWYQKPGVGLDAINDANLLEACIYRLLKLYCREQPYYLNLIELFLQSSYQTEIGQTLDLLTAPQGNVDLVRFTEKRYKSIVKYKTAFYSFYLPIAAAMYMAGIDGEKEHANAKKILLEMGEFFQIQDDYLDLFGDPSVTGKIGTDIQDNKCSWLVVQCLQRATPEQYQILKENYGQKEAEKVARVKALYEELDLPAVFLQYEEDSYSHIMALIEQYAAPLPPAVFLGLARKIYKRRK

## CC(C)C1=CC2=CC(=O)[C@H]3C(C)(C)CCC[C@]3(C)C2=C(O)C1=O (racemic) [FL-1, (±)-taxodione]
Glioblastoma cells
  arresting 3D 'tumor' cell growth / inhibiting glioblastoma cell growth: superior to alendronate
[1]
  inhibitor of farnesyl diphosphate synthase: inhibitor of farnesyl diphosphate synthase
